Measured values reported in patent US8394969B2, “Cyclic benzimidazole derivatives useful as anti-diabetic agents” (Merck Sharp & Dohme Corp., priority 2008, dated 2013).
Counter-ions that a name gives are not always drawn.

target: recombinant human AMPK complex 1 (containing α1β1γ1) (Homo sapiens, UniProt Q13131+Q9Y478); assay: […] (in vitro AMPK activation assay); type: biochemical; conditions: read-out: % Maximum AMP Activation of human AMPK Complex 1, recombinant human AMPK complex 1 (α1β1γ1); basal activity subtracted
Sequence (Q13131 whole entry): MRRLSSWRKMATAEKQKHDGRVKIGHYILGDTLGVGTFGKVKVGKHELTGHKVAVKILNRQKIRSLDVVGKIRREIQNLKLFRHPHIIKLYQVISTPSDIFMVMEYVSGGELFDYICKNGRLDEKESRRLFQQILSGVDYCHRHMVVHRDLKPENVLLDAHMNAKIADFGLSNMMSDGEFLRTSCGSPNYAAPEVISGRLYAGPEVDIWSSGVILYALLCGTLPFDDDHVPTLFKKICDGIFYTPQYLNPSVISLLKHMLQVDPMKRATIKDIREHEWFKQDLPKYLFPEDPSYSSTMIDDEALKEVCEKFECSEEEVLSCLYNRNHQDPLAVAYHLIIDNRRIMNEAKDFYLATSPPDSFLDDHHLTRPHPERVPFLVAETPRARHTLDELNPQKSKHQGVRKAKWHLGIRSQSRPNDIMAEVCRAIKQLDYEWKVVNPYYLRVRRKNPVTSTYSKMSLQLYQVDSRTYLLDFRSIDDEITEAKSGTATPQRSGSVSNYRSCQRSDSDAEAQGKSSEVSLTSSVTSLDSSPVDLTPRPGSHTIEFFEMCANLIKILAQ
Sequence (Q9Y478 whole entry): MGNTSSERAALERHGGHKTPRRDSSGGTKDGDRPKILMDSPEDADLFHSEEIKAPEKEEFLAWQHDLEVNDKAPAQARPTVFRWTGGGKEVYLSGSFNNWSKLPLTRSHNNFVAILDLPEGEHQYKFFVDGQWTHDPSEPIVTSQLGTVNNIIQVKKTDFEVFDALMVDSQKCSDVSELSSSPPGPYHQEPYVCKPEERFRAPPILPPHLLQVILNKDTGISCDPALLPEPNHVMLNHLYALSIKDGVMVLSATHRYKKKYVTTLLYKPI
Sequence (P54619 whole entry partner): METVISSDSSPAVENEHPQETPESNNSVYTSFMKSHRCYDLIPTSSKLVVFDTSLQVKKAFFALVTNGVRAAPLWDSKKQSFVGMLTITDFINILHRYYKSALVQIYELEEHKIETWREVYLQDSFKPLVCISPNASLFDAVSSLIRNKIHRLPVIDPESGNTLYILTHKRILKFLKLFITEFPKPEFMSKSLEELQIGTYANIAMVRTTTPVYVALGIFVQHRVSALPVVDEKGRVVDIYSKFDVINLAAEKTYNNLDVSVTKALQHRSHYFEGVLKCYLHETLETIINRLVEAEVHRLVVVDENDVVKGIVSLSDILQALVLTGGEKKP
Method: Recombinant viruses were generated by cotransfection of AMPK/pBacPak9 clones with Baculogold baculovirus DNA (Pharmingen) in spodoptera frugiperda 21 cells according to the manufacturer's instructions. Each round of virus amplification was performed for 5 days in Grace's medium containing 10% serum. Virus that had been subjected to three rounds of amplification was used for all protein production procedures. To express the AMPK complex, sf21 cells were adapted to serum free medium (SF900 II, Invitrogen) by sequential dilution from serum containing stocks into SF900 II medium and maintained in shaker flasks at 90 rpm at 27° C. The recombinant AMPK enzyme complex was produced by triple infection, one recombinant virus for each of the subunits, in sf21 cells under serum free conditions. […] Cells were harvested by centrifugation at 10,000×g for 15 minutes after 72 hours of infection with viruses. The insect cell pellet from 2 liters of culture was resuspended in 50 ml lysis buffer (20 mM Tris-HCl, 50 mM NaCl, 50 mM NaF, 30 mM Na PPi, 0.25 M sucrose, 10 mM ZnCl2, 2 mM DTT, 0.4 mg/ml digitonin) and subjected to two cycles of freeze-thaw lysis in a dry-ice ethanol bath. Insoluble material was removed by centrifugation at 10,000×g and the supernatant was fractionated with use of polyethylene glycol (PEG).
The total in vitro AMPK activation assay volume is 50 μl in a 96-well plate. […] The reaction was initiated with addition of the enzyme. After 30-minute incubation at 30° C., the reaction was stopped by addition of 80 μl 1% H3PO4. Aliquots (100 μl) were transferred to 96-well MultiScreen plates (MAPHNOB50; Millipore Corp., Bedford, Mass., USA). The plate was washed three times with 1% H3PO4 followed by detection in a Top-count. The counts per minute from the basal activity (the reaction without activator) was subtracted from each well and the data were expressed as % maximum AMP activation followed by EC50 calculation.

Row | Structure (SMILES) | Emax
1 | COc1cccc(-c2cc3nc(Oc4ccc(C)c(C(=O)O)c4)[nH]c3cc2Cl)c1 [Example 338, Ammonium 5-{[6-chloro-5-(3-methoxyphenyl)-1H-benzimidazol-2-yl]oxy}-2-methylbenzoate] | > 80%
2 | CSc1ccc(-c2cc3nc(Oc4ccc(C)c(C(=O)O)c4)[nH]c3cc2Cl)cc1 [Example 343, Ammonium 5-({6-chloro-5-[4-(methylthio)phenyl]-1H-benzimidazol-2-yl}oxy)-2-methylbenzoate] | > 80%

same assay, conditions: recombinant human AMPK complex 1 (α1β1γ1); basal activity subtracted; read-out: % Maximum AMP Activation of human AMPK Complex 1

Row | Structure (SMILES) | Emax
3 | Cc1ccc(Oc2nc3cc(-c4ccc(-c5ccc(O)cc5)cc4)c(Cl)cc3[nH]2)cc1C(=O)O [Example 104, 5-[6-Chloro-5-(4-hydroxy-biphenyl-4-yl)-1H-benzoimidazol-2-yloxy]-2-methyl-benzoic acid] | > 80%
4 | Cc1ccc(Oc2nc3cc(-c4ccc5c(ccc(=O)n5C)c4)c(Cl)cc3[nH]2)cc1C(=O)O [Example 234, 5-[6-Chloro-5-(1-methyl-2-oxo-1,2-dihydro-quinolin-6-yl)-1H-benzoimidazol-2-yloxy]-2-methyl-benzoic acid] | > 80%
5 | O=C(O)Cc1cccc(Oc2nc3cc(C#Cc4ccccc4)c(Cl)cc3[nH]2)c1 [Example 22, [3-(6-Chloro-5-phenylethynyl-1H-benzoimidazol-2-yloxy)-phenyl]-acetic acid] | > 80%
6 | Cc1ccc(Oc2nc3cc(-c4cccc5ncccc45)c(Cl)cc3[nH]2)cc1C(=O)O [Example 333, 2-(3-carboxy-4-methylphenoxy)-6-chloro-5-quinolin-5-yl-1H-3,1-benzimidazol-3-ium formate] | > 80%
7 | COc1ncccc1-c1ccc(-c2cc3nc(Oc4ccc(C)c(C(=O)O)c4)[nH]c3cc2Cl)cc1 [Example 199, 5-({6-chloro-5-[4-(2-methoxypyridin-3-yl)phenyl]-1-benzimidazol-2-yl}oxy)-2-methylbenzoic acid] | > 80%
8 | COc1ccc2cc(-c3cc4nc(Oc5ccc(Cl)c(C(=O)O)c5)[nH]c4cc3Cl)ccc2c1 [Example 309, 2-Chloro-5-[6-chloro-5-(6-methoxy-naphthalen-2-yl)-1H-benzoimidazol-2-yloxy]-benzoic acid] | > 80%
9 | COC(=O)c1cc(Oc2nc3cc(-c4ccc(-c5ccccc5OC)cc4)c(Cl)cc3[nH]2)ccc1C [Example 197, Methyl 5-{[6-chloro-5-(2′-methoxybiphenyl-4-yl)-1H-benzimidazol-2-yl]oxy}-2-methylbenzoate] | > 80%
10 | Cc1ccc(Oc2nc3cc(-c4ccc(-c5ccccn5)cc4)c(Cl)cc3[nH]2)cc1C(=O)O [Example 166, 5-[6-Chloro-5-(4-pyridin-2-yl-phenyl)-1H-benzoimidazol-2-yloxy]-2-methyl-benzoic acid] | > 80%
11 | O=c1[nH]nc(-c2cccc(Oc3nc4cc(-c5ccc(-c6ccccc6)cc5)c(Cl)cc4[nH]3)c2)o1 [Example 47, 5-[3-(5-Biphenyl-4-yl-6-chloro-1H-benzoimidazol-2-yloxy)-phenyl]-3H-[1,3,4]oxadiazol-2-one] | > 80%
12 | O=C(O)c1ccc(F)c(Oc2nc3cc(-c4ccc(-c5ccccc5)cc4)c(Cl)cc3[nH]2)c1 [Example 209, 3-(5-Biphenyl-4-yl-6-chloro-1H-benzoimidazol-2-yloxy)-4-fluoro-benzoic acid] | > 80%
13 | Cc1ccc(Oc2nc3cc(-c4cnc(N5CCCC5)cn4)c(F)cc3[nH]2)cc1C(=O)O [Example 250, 5-[6-Fluoro-5-(5-pyrrolidin-1-yl-pyrazin-2-yl)-1H-benzoimidazol-2-yloxy]-2-methyl-benzoic acid] | > 80%
14 | Cc1ccc(Oc2nc3cc(-c4ccc5c(c4)CC(=O)N5)c(Cl)cc3[nH]2)cc1C(=O)O [Example 307, 5-[6-Chloro-5-(2-oxo-2,3-dihydro-1H-indol-5-yl)-1H-benzoimidazol-2-yloxy]-2-methyl-benzoic acid] | > 80%
15 | Cc1ccc(Oc2nc3cc(-c4ccc(-c5cccc(Cl)c5)cc4)c(Cl)cc3[nH]2)cc1C(=O)O [Example 186, 5-{[6-chloro-5-(3′-chlorobiphenyl-4-yl)-1H-benzimidazol-2-yl]oxy}-2-methylbenzoic acid] | > 80%
16 | CC(=O)c1ccc2cc(-c3cc4nc(Oc5ccc(C)c(C(=O)O)c5)[nH]c4cc3Cl)ccc2c1 [Example 298, 5-[5-(6-Acetyl-naphthalen-2-yl)-6-chloro-1H-benzoimidazol-2-yloxy]-2-methyl-benzoic acid] | > 80%
17 | O=C(O)c1cc(COc2nc3cc(-c4ccc(-c5ccccc5)cc4)c(Cl)cc3[nH]2)cc(C(=O)O)c1 [Example 227, 5-(5-Biphenyl-4-yl-6-chloro-1H-benzoimidazol-2-yloxymethyl)-isophthalic acid] | > 80%
18 | CCc1ccc(Oc2nc3cc(-c4ccc(-c5ccccc5)cc4)c(Cl)cc3[nH]2)cc1C(=O)O [Example 212, 5-(5-Biphenyl-4-yl-6-chloro-1H-benzoimidazol-2-yloxy)-2-ethyl-benzoic acid] | > 80%
19 | COc1cc(C(=O)O)ccc1C#Cc1cc2nc(Oc3ccc(C)c(C(=O)O)c3)[nH]c2cc1Cl [Example 127, 5-({5-[(4-carboxy-2-methoxyphenyl)ethynyl]-6-chloro-1H benzimidazol-2-yl}oxy)-2-methylbenzoic acid] | > 80%
20 | COc1ccc2cc(-c3cc4nc(Oc5ccc(CC(=O)O)cc5)[nH]c4cc3Cl)ccc2c1 [Example 245, {4-[6-Chloro-5-(6-methoxy-naphthalen-2-yl)-1H-benzoimidazol-2-yloxy]-phenyl}-acetic acid] | > 80%
21 | Cc1ccc(Oc2nc3cc(-c4ccc5c(c4)OC(F)(F)O5)c(Cl)cc3[nH]2)cc1C(=O)O [Example 308, 5-[6-Chloro-5-(2,2-difluoro-benzo[1,3]dioxol-5-yl)-1H-benzoimidazol-2-yloxy]-2-methyl-benzoic acid] | > 80%
22 | Cc1ccc(Oc2nc3cc(-c4ccc(C(C)N)cc4)c(Cl)cc3[nH]2)cc1C(=O)O (centres unmarked) [Example 293, 1-{4-[2-(3-carboxy-4-methylphenoxy)-6-chloro-1H-benzimidazol-5-yl]phenyl}ethanaminium trifluoroacetate] | > 80%
23 | CC(=O)c1ccc(-c2cc3nc(Oc4cc(C)c(C)c(C(=O)O)c4)[nH]c3cc2Cl)cc1 [Example 317, 5-[5-(4-Acetyl-phenyl)-6-chloro-1H-benzoimidazol-2-yloxy]-2,3-dimethyl-benzoic acid] | > 80%
24 | Cc1ccc(Oc2nc3cc(-c4ccc5c(C)c[nH]c5c4)c(Cl)cc3[nH]2)cc1C(=O)O [Example 291, 5-[6-Chloro-5-(3-methyl-1H-indol-6-yl)-1H-benzoimidazol-2-yloxy]-2-methyl-benzoic acid] | > 80%
25 | CC(=O)Nc1cccc(Oc2nc3cc(-c4ccc(-c5ccccc5)cc4)c(Cl)cc3[nH]2)c1 [Example 3, N-[3-(5-Biphenyl-4-yl-6-chloro-1H-benzoimidazol-2-yloxy)-phenyl]-acetamide] | > 80%
26 | Cc1ccc(Oc2nc3cc(-c4ccc5cnccc5c4)c(Cl)cc3[nH]2)cc1C(=O)O [Example 280, 5-(6-Chloro-5-isoquinolin-6-yl-1H-benzoimidazol-2-yloxy)-2-methyl-benzoic acid] | > 80%
27 | COC(=O)c1cc(Oc2nc3cc(C#Cc4cccnc4)c(Cl)cc3[nH]2)ccc1C [Example 133, 5-(6-Chloro-5-pyridin-3-ylethynyl-1H-benzoimidazol-2-yloxy)-2-methyl-benzoic acid methyl ester] | > 80%
28 | Cc1ccc(Oc2nc3cc(-c4cnc(N5CCCC5)nc4)c(Cl)cc3[nH]2)cc1C(=O)O [Example 257, 2-(3-carboxy-4-methylphenoxy)-6-chloro-5-(2-pyrrolidin-1-yl-pyrimidin-5-yl)-1H-3,1-benzimidazol-3-ium trifluoroacetate] | > 80%
29 | O=C(O)c1cccc(Sc2nc3cc(-c4cccs4)c(Cl)cc3[nH]2)c1 [Example 65, 3-{[6-chloro-5-(2-thienyl)-1H-benzimidazol-2-yl]thio}benzoic acid] | > 80%
30 | Cc1ccc(Oc2nc3cc(-c4ccc5c(c4)cc(-c4ccccc4)n5C)c(Cl)cc3[nH]2)cc1C(=O)O [Example 277, 5-[6-Chloro-5-(1-methyl-2-phenyl-1H-indol-5-yl)-1H-benzoimidazol-2-yloxy]-2-methyl-benzoic acid] | > 80%
31 | COc1ccc2cc(-c3cc4nc(Oc5ccc(C)c(C(=O)O)c5)[nH]c4cc3Cl)ccc2c1 [Example 145, 5-[6-Chloro-5-(6-methoxy-naphthalen-2-yl)-1H-benzoimidazol-2-yloxy]-2-methyl-benzoic acid] | > 80%

same assay, conditions: recombinant human AMPK complex 1 (α1β1γ1); read-out: EC50

Row | Structure (SMILES) | EC50
32 | Cc1ccc(Oc2nc3cc(-c4ccc(-c5ccccc5)cc4)c(F)cc3[nH]2)cc1C(=O)O [Example 365, 5-[(5-biphenyl-4-yl-6-fluoro-1H-benzimidazol-2-yl)oxy]-2-methylbenzoic acid] | 9 nM
